From ChEMBL document CHEMBL1949514, “Design, Synthesis, and Antitumor Activity of 4-Halocolchicines and Their Pro-drugs Activated by Cathepsin B” (ACS Med Chem Lett, 2011) come the findings set out here.

One data set concerns A549. Briefly: Cytotoxicity against human A549 cells after 96 hrs using tetracolor one. To be noted: A549, 96 h. Format: functional, cell-based.
A further data set relates to HT-29. In words: Cytotoxicity against human HT-29 cells after 96 hrs using tetracolor one. The format is functional, cell-based. As to conditions: HT-29, 96 h; call rule not given here.
The subject of data set [1] is HCT-116. In words: Cytotoxicity against human HCT116 cells after 96 hrs using tetracolor one. To be noted: HCT-116, 96 h. Format: functional, cell-based.
In data set [2] the test system is HCT-116. Briefly: Antitumor activity against human HCT116 cells xenografted in BALB/c mouse assessed as tumor growth inhibition at 5 mg/kg, ip administered on day 1 to day 5 and day 8 to day 12 measured on day 21 relative to control. The format is functional. As to conditions: HCT-116, ip, route intraperitoneal, read-out: TGI.
In data set [3] the test system is Mus musculus. Briefly: Toxicity in human HCT116 cells xenografted BALB/c mouse assessed as mortality at 5 mg/kg, ip administered on day 1 to day 5 and day 8 to day 12 measured on day 21. The format is organism-based, HCT-116. Also on record: dose 5 mg/kg, route intraperitoneal. To be noted: in vivo.
Data set [4] deals with Mus musculus. In words: Toxicity in human HCT116 cells xenografted BALB/c mouse assessed as mortality at […], ip administered on day 1 to day 5 and day 8 to day 12 measured on day 21. Format: organism-based, HCT-116. Set-up: dose 0.25 mg/kg, route intraperitoneal. As to conditions: in vivo. For orientation: Xenograft models place foreign cells or tissue in a host animal.
For data set [5], the system named is Mus musculus. In words: Toxicity in human HCT116 cells xenografted BALB/c mouse assessed as mortality at 1 mg/kg, ip administered on day 1 to day 5 and day 8 to day 12 measured on day 21. The format is organism-based, HCT-116. Set-up: dose 1 mg/kg, route intraperitoneal. As to conditions: in vivo.
The subject of data set [6] is HCT-116. Briefly: Antitumor activity against human HCT116 cells xenografted in BALB/c mouse assessed as tumor growth inhibition at […], ip administered on day 1 to day 5 and day 8 to day 12 measured on day 21 relative to control. Format: functional. To be noted: HCT-116, ip, dose 0.25 mg/kg, route intraperitoneal, read-out: TGI.
The test system of data set [7] is HCT-116. Briefly: Antitumor activity against human HCT116 cells xenografted in BALB/c mouse assessed as tumor growth inhibition at 1 mg/kg, ip administered on day 1 to day 5 and day 8 to day 12 measured on day 21 relative to control. The format is functional. As to conditions: HCT-116, ip, route intraperitoneal, read-out: TGI.
Data set [8] has as its system HUVEC. In words: Cytotoxicity against human HUVEC cells after 96 hrs using tetracolor one. The format is ADME, cell-based.
Data set [9] deals with HUVEC. In words: Selectivity ratio of IC50 for human HUVEC cells to IC50 for human HT-29 cells.
The nature of data set [10]: Prodrug conversion assessed as (S)-7-Amino-4-fluoro-1,2,3,10-tetramethoxy-6,7-dihydro-5H-benzo[a]heptalen-9-one release at 4 uM in presence of bovine spleen cathepsin-B by HPLC analysis. To be noted: cattle. Format: physicochemical.
Data set [11] in a line: Chemical stability of the compound after 24 hrs by HPLC analysis. Format: physicochemical.
Data set [12] relates to HCT-116. Briefly: Antitumor activity against human HCT116 cells xenografted in BALB/c mouse assessed as tumor growth inhibition at 1 mg/kg, ip administered on 1, 3 and 5th day measured on day 21 relative to control. As to conditions: HCT-116, ip, 504 h, route intraperitoneal, read-out: TGI. The format is functional.
Data set [13] is described as follows: Prodrug conversion assessed as (S)-7-Amino-1,2,3,10-tetramethoxy-6,7-dihydro-5H-benzo[a]heptalen-9-one release at 4 uM in presence of bovine spleen cathepsin-B by HPLC analysis. The format is physicochemical. As to conditions: cattle.

A word on the IC50: it is the concentration at which inhibition is half-maximal. Read a high IC50 as weaker potency in that assay. For `COc1c(O)c2c(c(OC)c1OC)-c1ccc(OC)c(=O)cc1[C@@H](NC(C)=O)CC2`, the IC50 in the data set with A549 was determined as 225 nM; in the data set with HT-29, 484 nM.
For the molecule `COc1c(Br)c2c(c(OC)c1OC)-c1ccc(OC)c(=O)cc1[C@@H](NC(C)=O)CC2`, the values for the IC50 with A549, with HT-29 and in the data set with HCT-116 [1] were 14 nM, 6 nM and 7 nM, respectively.
As to `COc1c(Cl)c2c(c(OC)c1OC)-c1ccc(OC)c(=O)cc1[C@@H](NC(C)=O)CC2`, the IC50 was found to be 12 nM in the data set on A549, 10 nM with HT-29 and 9 nM in the data set with HCT-116 [1]. The inhibition in vivo at 5 mg/kg with HCT-116 [2] is 68.4%. The Activity result in the data set on Mus musculus [3] was “Non-toxic”.
For the molecule `COc1c(OC)c2c(c([N+](=O)[O-])c1OC)CC[C@H](NC(C)=O)c1cc(=O)c(OC)ccc1-2`, the values for the IC50 in the data set on A549, in the data set on HT-29 and with HCT-116 [1] were 73 nM, 31 nM and 38 nM, respectively.
For `COc1c(Cl)c2c(c(OC)c1OC)-c1ccc(OC)c(=O)cc1[C@@H](N)CC2`, the IC50 with A549 came out at 301 nM; in the data set with HT-29, 250 nM.
Regarding `COc1c(F)c2c(c(OC)c1OC)-c1ccc(OC)c(=O)cc1[C@@H](NC(C)=O)CC2`, the Activity result in the data set on Mus musculus [4] and with Mus musculus [5] was “Non-toxic” throughout. The IC50 is 33 nM in the data set with A549, 7 nM in the data set on HT-29 and 8 nM with HCT-116 [1]. In addition, the inhibition in vivo at […] in the data set on HCT-116 [6] turned out to be 25%. Further, in the data set on HCT-116 [7], the inhibition in vivo at 1 mg/kg is 55.6%.
Consider `COc1c(F)c2c(c(OC)c1OC)-c1ccc(OC)c(=O)cc1[C@@H](NC(=O)OCc1ccc(NC(=O)[C@H](CCCCN)NC(=O)[C@H](Cc3ccccc3)NC(=O)OCc3ccccc3)cc1)CC2`, for which the IC50 in the data set on HUVEC [8] is 151 nM; with HT-29 it was 91 nM. Besides, the “Ratio IC50” value in the data set on HUVEC [9] amounted to 1.7. Moreover, the Drug metabolism entry in [10] was “Active”. The Stability entry in data set [11] is “Stable”.
In the case of `COc1cc2c(c(OC)c1OC)-c1ccc(OC)c(=O)cc1[C@@H](NC(C)=O)CC2` [COLCHICINE], the results for the IC50 in the data set with A549, with HT-29 and in the data set with HCT-116 [1] were 54 nM, 8 nM and 11 nM, respectively. Moreover, in the data set with HCT-116 [12], the inhibition in vivo at 1 mg/kg was found to be 32.8%.
Turning to `COc1c(N)c2c(c(OC)c1OC)-c1ccc(OC)c(=O)cc1[C@@H](NC(C)=O)CC2`, the results for the IC50 in the data set on A549 and with HT-29 were 2180 nM and 1550 nM, respectively.
Consider `COc1c(F)c2c(c(OC)c1OC)-c1ccc(OC)c(=O)cc1[C@@H](N)CC2`, for which the IC50 with A549 was 101 nM; in the data set with HUVEC [8], 75 nM; in the data set with HT-29 it was 80 nM. Further, in the data set with HUVEC [9], the “Ratio IC50” value is given as 0.9.
Turning to `COc1c(I)c2c(c(OC)c1OC)-c1ccc(OC)c(=O)cc1[C@@H](NC(C)=O)CC2`, the IC50 in the data set on A549 is 32 nM; in the data set with HT-29 it was 6 nM; with HCT-116 [1] it was 7 nM.
On the same counts, the results for `COc1c(C=O)c2c(c(OC)c1OC)-c1ccc(OC)c(=O)cc1[C@@H](NC(C)=O)CC2` are 1010 nM, 128 nM and 54 nM.
Regarding `COc1cc2c(c(OC)c1OC)-c1ccc(OC)c(=O)cc1[C@@H](NC(=O)OCc1ccc(NC(=O)[C@H](CCCCN)NC(=O)[C@H](Cc3ccccc3)NC(=O)OCc3ccccc3)cc1)CC2`, the IC50 with HUVEC [8] came to 75 nM; with HT-29, 44 nM. Further, in the data set on HUVEC [9], the “Ratio IC50” value is given as 1.7. In addition, in data set [13], the Drug metabolism entry is “Active”. In addition, the Stability result in data set [11] is on record as “Stable”.
